Results on ten compounds are retold here after patent US20230048132A1, “CYCLIN-DEPENDENT KINASE INHIBITORS” (SPV THERAPEUTICS INC., priority 2018, published 2023).

Test [1] addresses T1, CDK2-CYCLINA (Homo sapiens, UniProt P24941).
T1 construct: purchased Millipore
Nature of the test: CDK inhibition assay (microfluidic LabChip, IC50 format). It counts as biochemical.

Test [2] deals with T2, CDK2-CYCLINE (Homo sapiens, UniProt P24941).
T2 construct: purchased Millipore
Described as above. It counts as biochemical. The settings on record: Table 3; purified enantiomers; read-out: CDK2-E (E1/E2).

Test [3] addresses T3, CDK6-CYCLIND3 (Homo sapiens, UniProt Q00534).
T3 construct: purchased Carna
The description is as above. It counts as biochemical.

Test [4] concerns the target T4, CDK9-CYCLINT1 (Homo sapiens, UniProt P50750).
T4 construct: purchased Carna
The test is described as above. It counts as biochemical.

The target in test [5] is CDK4-CYCLIND1 (Homo sapiens, UniProt P11802). The description is as above.
CDK4-CYCLIND1, sequence (P11802 whole entry): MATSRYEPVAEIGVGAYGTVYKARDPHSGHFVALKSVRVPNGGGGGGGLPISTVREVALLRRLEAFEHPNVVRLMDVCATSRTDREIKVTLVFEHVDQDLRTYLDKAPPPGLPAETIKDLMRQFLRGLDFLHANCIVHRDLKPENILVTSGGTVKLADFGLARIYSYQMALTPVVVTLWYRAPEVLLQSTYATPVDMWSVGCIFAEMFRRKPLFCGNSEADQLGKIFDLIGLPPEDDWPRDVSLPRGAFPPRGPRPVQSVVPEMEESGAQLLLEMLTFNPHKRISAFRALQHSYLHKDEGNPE
CDK4-CYCLIND1, sequence (P24385 whole entry partner): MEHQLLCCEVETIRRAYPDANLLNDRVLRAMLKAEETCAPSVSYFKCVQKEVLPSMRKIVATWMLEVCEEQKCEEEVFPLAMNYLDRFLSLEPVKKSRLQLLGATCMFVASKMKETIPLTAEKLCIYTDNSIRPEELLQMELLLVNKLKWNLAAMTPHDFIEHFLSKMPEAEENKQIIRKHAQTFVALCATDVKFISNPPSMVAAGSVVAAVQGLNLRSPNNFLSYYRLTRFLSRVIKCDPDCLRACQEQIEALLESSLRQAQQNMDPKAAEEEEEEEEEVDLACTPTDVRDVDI
Test [6] has as its system LEXFAM MV4-11. Nature of the test: 2D cell proliferation assay (CellTiter-Blue). The settings on record: Homo sapiens, 72 h, three days of treatment, read-out: abs. IC50. It counts as cell-based. The procedure: (§1) Viability of the cells was analyzed by using the CellTiter-Blue® Cell Viability Assay (Promega), and was performed according to manufacturer's instructions. Briefly, cells were harvested from exponential phase cultures (Chapter 6.6), counted and plated in 96-well flat-bottom microtiter plates at a cell density of 4,000-60,000 cells/well in a volume of 140 μl per well. After a 24 hours recovery period, 10 μL cell culture medium (six control wells/plate) or culture medium with test compound were added (Chapter 6.2). The compounds were applied at five concentrations in full-log increments up to 100 μM in duplicate. Cultures were incubated at 37° C. and 5% CO2 in a humidified atmosphere for another three days. After three days of treatment, 20 μl/well CellTiter-Blue® reagent was added. Following incubation with CellTiter-Blue® reagent for up to four hours, fluorescence (FU) was measured by using the Enspire Multimode Plate Reader (excitation λ=570 nm, emission λ=600 nm). For calculations, the mean values of duplicate/sextuplicate (untreated control) data were used.
(§2) An assay was considered fully evaluable if the following quality control criteria were fulfilled: • control/background ratio>3.0-Z′-factor calculated within the assay plate>0.5 [7]—coefficient of variation in the growth control wells <30%
(§3) Drug effects were expressed in terms of the percentage of the fluorescence signal, obtained by comparison of the mean signal in the treated wells with the mean signal of the untreated controls (expressed by the test-versus-control value, T/C-value [%]):
(§4) IC values are reported as relative IC50 values and absolute IC50 and IC70 values. […] The absolute IC70 value gives the concentration of the test compound that achieves T/C=30%. The relative IC50 value is the concentration of test compound that gives a response halfway between the top and bottom plateau of the sigmoidal concentration-response curve (inflection point of the curve). Calculation was done by 4parameter non-linear curve fit (Oncotest Data Warehouse Software).
(§5) If an IC50 or IC70 value could not be determined within the examined dose range (because a compound was either too active or lacked activity), the lowest or highest concentration studied was used for calculation of the geometric mean value.

The subject of test [7] is LXFA A549. Nature of the test: 2D cell proliferation assay (CellTiter-Blue). To be noted: Homo sapiens, 72 h, three days of treatment, read-out: abs. IC50. It counts as cell-based. As for the experimental part: as §1, §2, §3, §4, §5
A general note: Alamar Blue is a resazurin reagent that responds to reducing activity.

For test [8], the system named is LXFL NCl-H1299. The test can be described thus: 2D cell proliferation assay (CellTiter-Blue). It counts as cell-based. The settings on record: 72 h, three days of treatment, read-out: abs. IC50. The procedure: as §1, §2, §3, §4, §5
In test [9] the test system is MAXFLB MCF7 (ER+). The test can be described thus: 2D cell proliferation assay (CellTiter-Blue). To be noted: Homo sapiens, 72 h, three days of treatment, read-out: abs. IC50. It counts as cell-based. As for the experimental part: as §1, §2, §3, §4, §5
The subject of test [10] is MAXFTN ZR-75-1 (ER+). Nature of the test: 2D cell proliferation assay (CellTiter-Blue). It counts as cell-based. The settings on record: Homo sapiens, 72 h, three days of treatment, read-out: abs. IC50. As for the experimental part:
as §1, §2, §3, §4, §5

Test [11] has as its system MEXF WM-266-4. The test can be described thus: 2D cell proliferation assay (CellTiter-Blue). It counts as cell-based. To be noted: Homo sapiens, 72 h, three days of treatment, read-out: abs. IC50. As for the experimental part: as §1, §2, §3, §4, §5
Test [12] deals with all cell lines tested. The test can be described thus: 2D cell proliferation assay, geometric mean over the cell line panel. It counts as cell-based. To be noted: Table 5 lower part; geometric mean over the 8-line panel; read-out: Geomean abs. IC50 value. The procedure:
as §1, §4, §5
The overall potency of a compound was determined by the geometric mean IC50/IC70 values of all individual IC50/IC70 values. In the heatmap representation of IC50 and IC70 values, the distribution of the IC50 or IC70 values obtained for a test compound in the individual cell lines is given in relation to the geometric mean IC50 or IC70 value, obtained over all PDX models tested. The individual IC values range from 1/32-fold geometric mean IC (corresponding to very potent compound activity or high tumor sensitivity) to 32-fold geometric mean IC (corresponding to lack of compound activity or tumor resistance). The heatmap presentation, therefore, represents an antiproliferative “fingerprint” profile of a test compound.

Test [13] deals with CDK7 CyclinH (Homo sapiens, UniProt P50613). The test can be described thus: CDK inhibition assay (microfluidic LabChip, IC50 format). It counts as biochemical. The settings on record: Table 4a.
CDK7 CyclinH, sequence (P50613 whole entry): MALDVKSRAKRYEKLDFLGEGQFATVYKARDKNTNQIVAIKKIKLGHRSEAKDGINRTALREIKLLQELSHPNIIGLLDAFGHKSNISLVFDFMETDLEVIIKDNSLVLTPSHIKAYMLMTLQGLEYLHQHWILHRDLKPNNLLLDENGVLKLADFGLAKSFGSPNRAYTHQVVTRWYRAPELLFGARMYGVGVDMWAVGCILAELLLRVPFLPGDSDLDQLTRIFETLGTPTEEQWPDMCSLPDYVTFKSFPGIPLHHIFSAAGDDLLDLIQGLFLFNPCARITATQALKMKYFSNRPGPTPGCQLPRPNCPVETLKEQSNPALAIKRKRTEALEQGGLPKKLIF
CDK7 CyclinH, sequence (P51946 whole entry partner): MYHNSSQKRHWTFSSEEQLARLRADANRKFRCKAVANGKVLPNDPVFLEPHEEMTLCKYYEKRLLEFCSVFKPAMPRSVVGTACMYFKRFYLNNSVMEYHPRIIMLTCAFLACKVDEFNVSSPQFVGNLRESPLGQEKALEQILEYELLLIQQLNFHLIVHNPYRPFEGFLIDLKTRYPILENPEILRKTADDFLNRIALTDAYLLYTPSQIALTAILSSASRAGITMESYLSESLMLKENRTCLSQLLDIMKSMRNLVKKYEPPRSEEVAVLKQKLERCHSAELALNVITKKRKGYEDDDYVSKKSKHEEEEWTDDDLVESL
CDK7 CyclinH, sequence (P51948 whole entry partner): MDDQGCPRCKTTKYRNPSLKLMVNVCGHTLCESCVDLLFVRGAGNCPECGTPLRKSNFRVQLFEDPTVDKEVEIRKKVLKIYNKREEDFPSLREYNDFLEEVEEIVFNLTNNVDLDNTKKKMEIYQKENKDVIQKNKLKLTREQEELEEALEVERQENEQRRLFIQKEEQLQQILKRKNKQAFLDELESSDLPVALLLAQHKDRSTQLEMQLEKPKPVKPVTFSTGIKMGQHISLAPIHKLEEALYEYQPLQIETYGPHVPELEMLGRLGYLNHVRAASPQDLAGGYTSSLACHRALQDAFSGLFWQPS
[14] abbreviates: Table 3, purified enantiomers, read-out: CDK2-A (E1/E2).
Setting [15] is: Table 3, purified enantiomers, read-out: CDK6 (E1/E2).
[16] abbreviates: Table 3, purified enantiomers, read-out: CDK9-T (E1/E2).
Where [17] appears, read: CDK4 (E1/E2), Table 3, purified enantiomers.
The mark [18] stands for this setting: Table 4a, read-out: CDK2 CyclinA IC50.
Setting [19] is: Table 4a, read-out: CDK6 CyclinD3 IC50.
[20] abbreviates: Table 4a, read-out: CDK9 CyclinT1 IC50.

Where two headings read alike, the source gives them in different places.

T4 sequence (P50750 whole entry): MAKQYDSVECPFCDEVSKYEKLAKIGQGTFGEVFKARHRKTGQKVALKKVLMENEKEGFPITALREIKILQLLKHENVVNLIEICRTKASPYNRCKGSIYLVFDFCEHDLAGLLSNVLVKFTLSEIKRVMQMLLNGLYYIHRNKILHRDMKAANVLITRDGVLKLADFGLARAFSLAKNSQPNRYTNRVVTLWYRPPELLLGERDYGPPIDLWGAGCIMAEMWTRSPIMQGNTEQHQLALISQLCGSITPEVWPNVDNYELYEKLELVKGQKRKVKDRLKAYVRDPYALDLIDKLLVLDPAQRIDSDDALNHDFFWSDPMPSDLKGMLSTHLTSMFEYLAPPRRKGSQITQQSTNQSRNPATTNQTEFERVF
T4 sequence (O60563 whole entry partner): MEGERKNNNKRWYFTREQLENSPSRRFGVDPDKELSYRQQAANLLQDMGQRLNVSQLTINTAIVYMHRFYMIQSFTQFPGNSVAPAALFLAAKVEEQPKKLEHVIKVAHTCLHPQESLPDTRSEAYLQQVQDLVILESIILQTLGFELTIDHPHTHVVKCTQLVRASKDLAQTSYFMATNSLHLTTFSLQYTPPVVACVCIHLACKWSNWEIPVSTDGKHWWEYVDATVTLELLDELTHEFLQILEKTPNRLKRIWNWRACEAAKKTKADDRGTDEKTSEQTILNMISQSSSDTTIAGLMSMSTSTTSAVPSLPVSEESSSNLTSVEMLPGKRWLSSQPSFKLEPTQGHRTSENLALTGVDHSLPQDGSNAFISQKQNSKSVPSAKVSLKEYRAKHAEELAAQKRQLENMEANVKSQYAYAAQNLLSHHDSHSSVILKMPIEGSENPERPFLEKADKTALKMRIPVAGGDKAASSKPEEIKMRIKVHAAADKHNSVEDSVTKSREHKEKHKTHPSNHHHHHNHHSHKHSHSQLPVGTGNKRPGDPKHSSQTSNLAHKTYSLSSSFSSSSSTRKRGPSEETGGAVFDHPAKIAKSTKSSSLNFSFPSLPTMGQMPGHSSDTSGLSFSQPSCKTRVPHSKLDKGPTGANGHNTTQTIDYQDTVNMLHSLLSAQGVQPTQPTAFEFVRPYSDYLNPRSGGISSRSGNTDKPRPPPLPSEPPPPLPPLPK
T3 sequence (Q00534 whole entry): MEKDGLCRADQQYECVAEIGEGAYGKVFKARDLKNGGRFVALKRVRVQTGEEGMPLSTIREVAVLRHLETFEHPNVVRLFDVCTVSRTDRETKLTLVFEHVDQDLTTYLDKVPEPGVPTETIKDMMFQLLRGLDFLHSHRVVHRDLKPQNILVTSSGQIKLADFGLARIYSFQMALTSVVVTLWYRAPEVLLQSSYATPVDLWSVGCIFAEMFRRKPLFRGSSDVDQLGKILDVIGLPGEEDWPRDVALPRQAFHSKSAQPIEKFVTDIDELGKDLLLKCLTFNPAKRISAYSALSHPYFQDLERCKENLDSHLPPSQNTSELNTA
T3 sequence (P30281 whole entry partner): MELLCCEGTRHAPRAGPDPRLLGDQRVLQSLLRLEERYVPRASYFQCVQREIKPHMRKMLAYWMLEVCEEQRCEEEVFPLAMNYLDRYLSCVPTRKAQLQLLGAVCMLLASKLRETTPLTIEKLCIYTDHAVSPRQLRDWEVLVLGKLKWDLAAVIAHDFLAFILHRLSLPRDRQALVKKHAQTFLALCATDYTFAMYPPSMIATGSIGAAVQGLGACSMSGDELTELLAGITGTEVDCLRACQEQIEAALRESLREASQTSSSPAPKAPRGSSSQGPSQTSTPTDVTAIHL

With `O=C1NCC[C@]12Cc1cnc(Nc3ccc(N4CCNCC4)c(F)c3)nc1N(C1CCCC1)C2=O` [Example D49, (R)-8-cyclopentyl-2-((3-fluoro-4-(piperazin-1-yl)phenyl)amino)-5,8-dihydro-7H-spiro[pyrido[2,3-d]pyrimidine-6,3′-pyrrolidine]-2′,7-dione], the IC50 in test [1] (setting [14]) was determined as 3410 nM; in [2], 5660 nM; in [3] (setting [15]), 360 nM; in test [4] (setting [16]), 1240 nM; in [5] (setting [17]), 136 nM.

On to `CN1CCN(c2ccc(Nc3ncc4c(n3)N(C3CCCC3)C(=O)[C@@]3(CCNC3=O)C4)cc2F)CC1` [Example D51, (R)-8-cyclopentyl-2-((3-fluoro-4-(4-methylpiperazin-1-yl)phenyl)amino)-5,8-dihydro-7H-spiro[pyrido[2,3-d]pyrimidine-6,3′-pyrrolidine]-2′,7-dione], for which the IC50 in [1] (setting [14]) turned out to be 5940 nM; in test [2], 11500 nM; in test [3] (setting [15]), 444 nM; in test [4] (setting [16]) it was 1150 nM; in [5] (setting [17]) it was 211 nM.

For `CC(C)N1CCN(c2ccc(Nc3ncc4c(n3)N(C3CCCC3)C(=O)[C@@]3(CCNC3=O)C4)cc2F)CC1` [Example D53, (R)-8-cyclopentyl-2-((3-fluoro-4-(4-isopropylpiperazin-1-yl)phenyl)amino) -5,8-dihydro-7H-spiro[pyrido[2,3-d]pyrimidine-6,3′-pyrrolidine]-2′,7-dione], the IC50 in test [1] (setting [14]) worked out at 9670 nM; in test [2], 12100 nM; in test [3] (setting [15]), 384 nM; in test [5] (setting [17]) it was 178 nM.

Consider `CC(C)N1CCN(c2ccc(Nc3ncc4c(n3)N(C3CCCC3)C(=O)[C@]3(CCNC3=O)C4)cc2F)CC1` [Example D54, (S)-8-cyclopentyl-2-((3-fluoro-4-(4-isopropylpiperazin-1-yl)phenyl)amino)-5,8-dihydro-7H-spiro[pyrido[2,3-d]pyrimidine-6,3′-pyrrolidine]-2′,7-dione], for which the IC50 in test [1] (setting [14]) stood at 45.6 nM; in test [2] it was 106 nM; in [3] (setting [15]), 1.65 nM; in test [6] it was 10 nM; in test [7], 1400 nM; in test [8], 212 nM. The IC50 in test [9] amounted to 188 nM; in test [10] it was 10300 nM; in test [11], 331 nM; in test [12], 352 nM; in test [5] (setting [17]), 0.822 nM.

On to `O=C1NCC[C@]12Cc1cnc(Nc3ccc(N4CCNCC4)cc3)nc1N(C1CCCC1)C2=O` [Example D55, (R)-8-cyclopentyl-2-((4-(piperazin-1-yl)phenyl)amino)-5,8-dihydro-7H-spiro[pyrido[2,3-d]pyrimidine-6,3′-pyrrolidine]-2′,7-dione], for which the IC50 turned out to be 6000 nM in test [1] (setting [14]); 8880 nM in [2]; 519 nM in [3] (setting [15]); 1800 nM in test [4] (setting [16]); 251 nM in test [5] (setting [17]).

On to `O=C1NCC[C@@]12Cc1cnc(Nc3ccc(N4CCNCC4)cc3)nc1N(C1CCCC1)C2=O` [Example D56, (S)-8-cyclopentyl-2-((4-(piperazin-1-yl)phenyl)amino)-5,8-dihydro-7H-spiro[pyrido[2,3-d]pyrimidine-6,3′-pyrrolidine]-2′,7-dione], for which the IC50 was determined as 48.2 nM in test [1] (setting [14]); 104 nM in test [2]; 2.67 nM in test [3] (setting [15]); 11.1 nM in [4] (setting [16]); 1.4 nM in [5] (setting [17]).

Regarding `O=C1NCC[C@]12Cc1cnc(Nc3ccc(N4CCNCC4)cn3)nc1N(C1CCCC1)C2=O` [Example D57, (R)-8-cyclopentyl-2-((5-(piperazin-1-yl)pyridin-2-yl)amino)-5,8-dihydro-7H-spiro[pyrido[2,3-d]pyrimidine-6,3′-pyrrolidine]-2′,7-dione], the IC50 is > 100000 nM in [1] (setting [14]); > 100000 nM in [2]; 2010 nM in test [3] (setting [15]); > 100000 nM in test [4] (setting [16]); 1050 nM in [5] (setting [17]).

With `O=C1NCC[C@@]12Cc1cnc(Nc3ccc(N4CCNCC4)cn3)nc1N(C1CCCC1)C2=O` [Example D58, (S)-8-cyclopentyl-2-((5-(piperazin-1-yl)pyridin-2-yl)amino)-5,8-dihydro-7H-spiro[pyrido[2,3-d]pyrimidine-6,3′-pyrrolidine]-2′,7-dione], the IC50 in [1] (setting [14]) was found to be 3120 nM; in test [2] it was 4240 nM; in test [3] (setting [15]) it was 3.26 nM; in test [4] (setting [16]), 198 nM; in test [5] (setting [17]), 2.96 nM.

As for `CN1CCN(c2ccc(Nc3ncc4c(n3)N(C3CCCC3)C(=O)[C@]3(CCNC3=O)C4)cc2)CC1` [Example D144, (S)-8-cyclopentyl-2-((4-(4-methylpiperazin-1-yl)phenyl)amino)-5,8-dihydro-7H-spiro[pyrido[2,3-d]pyrimidine-6,3′-pyrrolidine]-2′,7-dione], the IC50 in test [1] (setting [18]) came to 29.2 nM; in test [3] (setting [19]), 1.54 nM; in [13], 229 nM; in [4] (setting [20]), 4.84 nM; in [6], 10 nM; in [7], 1290 nM. Moreover, the IC50 is 219 nM in test [8]; 114 nM in test [9]; 100000 nM in test [10]; 358 nM in [11]; 475 nM in test [12].

For `Cc1cc(Nc2ncc3c(n2)N(C2CCCC2)C(=O)[C@]2(CCNC2=O)C3)ccc1N1CCN(C(C)C)CC1` [Example D158, (S)-8-cyclopentyl-2-((4-(4-isopropylpiperazin-1-yl)-3-methylphenyl)amino)-5,8-dihydro-7H-spiro[pyrido[2,3-d]pyrimidine-6,3′-pyrrolidine]-2′,7-dione], the IC50 in test [1] (setting [18]) was 22.2 nM; in test [3] (setting [19]), 2.17 nM; in [13], 120 nM; in test [4] (setting [20]), 5.25 nM; in test [6], 38 nM; in [7], 554 nM. The IC50 in test [8] is 257 nM; in test [9], 55 nM; in test [10], 5520 nM; in test [11] it was 451 nM; in test [12], 301 nM; in test [5] (CDK4 CyclinD1 IC50, Table 4a, a second value in parentheses for some compounds), 1.04 nM.
